Measurements from PMC5387716, “Discovery of monocarbonyl curcumin-BTP hybrids as STAT3 inhibitors for drug-sensitive and drug-resistant breast cancer therapy” (Scientific Reports, 2017).

Experiments:
LO2 cells = assay: MTT anti-proliferative assay, LO2; format: cell-based; conditions: normal human liver cells, Table 2 prints no unit, μM
Procedure: All cell lines were purchased from Cell Bank of Shanghai Institute of Biochemistry and Cell Biology, Chinese Academy of Sciences (Shanghai, China). Human breast carcinoma cells (MCF-7 and MCF-7/DOX), breast epithelial cells (MCF-10A) and normal human liver cells (LO2) were maintained in RPMI-1640 medium. All cells were supplemented with 12% fetal bovine serum containing 50 μg/ml penicillin and 50 μg/ml streptomycin. Cells were grown to 80% confluency in a tissue culture flask at 37 °C in a humidified atmosphere containing 5% CO2, and then were trypsinized with 1 × Trypsin-Versene and split. The MCF-7/DOX cell line we used was established from its parental cell line MCF-7 cell by gradually increasing the concentration of DOX to which the cells were exposed in a stepwise manner over a period of 8 months. […] The cells were incubated in drug-free medium for at least 1 week before use.
Cells (MCF-7, MCF-7/DOX, MCF-10A, LO2) were seeded in 96-well plates at a density of 3,000–6,000 cells per well. The cells were incubated overnight (16 h) in a humidified 5% CO2 incubator at 37 °C. After media removal, different concentrations of test compounds were added in triplicate to the plates in 200 μL of fresh media and were incubated with the cells at 37 °C for 48 h. […] Cell viability was evaluated using 3-(4, 5-dimethylthiazolyl)-2,5-diphenyltetrazoliumbromide (MTT). The absorbance was read by an ELISA reader (SpectraMax Plus384, Molecular Devices, Sunnyvale, CA) at a test wavelength of 570 nm and a reference wavelength of 630 nm. Cell viability was calculated using the following formula: […]

STAT3 = assay: Immunofluorescence of p-STAT3 nuclear translocation; format: cell-based, human; conditions: MCF-7 cells, 6 h then IL-6 50 ng/ml 30 min
Procedure: The basic protocol for the analysis of p-STAT3 subcellular location has been previously described. Briefly, MCF-7 cells were starved overnight, followed by incubation with 6b for 6 h. Cells were then stimulated with 50 ng/ml IL-6 for 30 min before being harvested in Tris-buffered saline (TBS) containing 1 mM sodium orthovanadate. Cells were transferred to polylysine-coated slides by cytospin and air dried for 20 min at room temperature. After being fixed in 2% of paraformaldehyde for 10 min and permeabilized in 0.1% Triton X-100 for 5 min, cells were blocked in TBS containing 5% bovine serum albumin for 1 h at room temperature before being stained with p-STAT3 (Tyr705) overnight at 4 °C. Then, cells were gently washed and incubated with FITC–conjugated, goat, anti-rabbit IgG (Beyotime Biotechnology Ltd). Finally, slides were incubated with 5 μg/ml of 4′,6-diamidino-2-phenylindole (DAPI, Beyotime) for 5 min. The subcellular location and relative abundance of p-STAT3 were immediately analyzed with an ImageXpress Micro Confocal analysis.

Bax gene = assay: Quantitative real-time RT-PCR of Bax; format: cell-based, human; conditions: 24 h
Procedure: Levels of mRNA expression were analyzed with the RT-PCR assay, with total RNA isolated from MCF-7 or MCF-7/DOX cells using an EASYspin Plus tissue/cell RNA extraction kit (Aidlab Biotechnologies Co. Ltd). RNA was quantified by measuring absorption at 260 nm and 1 μg of RNA was reverse transcribed to cDNA using the Transcriptor First Strand cDNA Synthesis Kit (Roche Diagnostics, Basel, Switzerland). Thermal cycling conditions included 95 °C initial denaturation for 5 min, followed by 40 cycles of denaturation (10 s at 95 °C), annealing (15 s at 60 °C) and extension (15 s at 72 °C with a single fluorescence measurement), a melt curve program (60–95 °C with a 0.11 °C/s heat increase and continuous fluorescence measurement) and a cooling step to 40 °C. The Δ cycle threshold method was used for the calculation of relative differences in mRNA abundance with a LightCycler 480 (Roche Molecular Biochemicals, Mannheim, Germany). The data were normalized to the expression of GAPDH. The results were expressed as fold-changes. The RT-PCR primers that were used in this study are listed in the supporting information.

[1] = system: PARP, Caspase 9 and Caspase 3; assay: Western blot of cleaved PARP, Caspase 9 and Caspase 3; format: cell-based, human
MCF-7 cells = assay: ROS detection by DCFH-DA flow cytometry, MCF-7; format: cell-based, human; conditions: MCF-7, different concentrations (1, 2, 4 μM), 24 h
Procedure: MCF-7 or MCF-7/DOX cells were seeded at a density of 3 × 10^5 cells per well of a 6-well plate and treated with various concentrations of 6b (0, 1, 2, 4 μM) or 4 μM curcumin for 24 h. DCFH-DA was dissolved in serum-free medium and diluted to a final concentration of 10 μM. After treatment with 6b, the growth media was replaced with serum-free medium containing the probe. After incubation for 20 min at 37 °C, cells were washed with serum-free medium twice, digested by trypsin and resuspended in pre-warmed PBS buffer. The samples were then subjected to a flow cytometry assay using a BD FACSCalibur flow cytometer (Becton & Dickinson Company, Franklin Lakes, NJ).

STAT1 = assay: IFN-γ induced STAT1 phosphorylation (western blot); format: cell-based, human; conditions: MCF-7, 0.5–4 μM, 6 h, IFN-γ 50 ng/mL 30 min; compared with effect on IL-6-induced p-STAT3
Src = assay: Western blot of p-Src; format: cell-based, human; conditions: MCF-7 and MCF-7/DOX cells, 24 h
Procedure: (§1) MCF-7 or MCF-7/DOX cells were incubated with various concentrations of 6b for 24 h. After trypsinization, cells were treated with 1× RIPA lysis buffer (50 mM Tris–HCl, pH 7.4, 150 mM NaCl, 0.25% deoxycholic acid, 1% NP-40, 1 mM EDTA and protease inhibitors) (Amresco, Solon, USA) to extract the total proteins. An aliquot of proteins from the total cell lysates (30 to 60 μg/lane) was separated by sodium dodecyl sulfate (10%) polyacrylamide gel electrophoresis (SDS–PAGE, Bio-Rad Laboratories, Hercules, CA), wet-transferred to NC membrane (Bio-Rad Laboratories, Hercules, CA) and blotted with primary antibodies specific for STAT3, p-STAT3, p-Jak2, Jak2, p-Src, Src, Erk, P-Erk, PARP, cleaved PARP, Bcl-2, Bax, Cyclin D1, P-gp and GAPDH. Bound immuno-complexes were detected using ChemiDOC™ XRS + system (Bio-Rad Laboratories, Hercules, CA).

Erk1/2 = assay: Western blot of p-Erk1/2; format: cell-based, human; conditions: MCF-7 and MCF-7/DOX cells, 24 h
Procedure: as §1

For `COc1ccc(/C=C/C(=O)N2CCN(C(=O)C3=Cc4cc(Br)ccc4S3(=O)=O)CC2)cc1` [Compound 6b, (E)-1-(4-(5-bromo-1,1-dioxidobenzo[b]thiophene-2-carbonyl)piperazin-1-yl)-3-(4-methoxyphenyl)prop-2-en-1-one], which IC50 (LO2 cells; 48 h) is on record?
Its IC50 is 8.31 ± 0.41 µM.

And the IC50 (LO2 cells; Homo sapiens, L02, 48 h)?
The IC50 was 8.3 µM.

What about the “p-STAT3 level in the nucleus” value (STAT3) of the same compound?
The value was “sharp decrease”.

And the “Bax gene expression increase” value (Bax gene; MCF-7/DOX cells, 1.0 μM)?
Its value is 14.0%.

And the “Bax gene expression increase” value (Bax gene; MCF-7/DOX cells, 2.0 μM)?
The value was 76.5%.

And the “Bax gene expression increase” value (Bax gene; MCF-7/DOX cells, 4.0 μM)?
The value was 125.0%.

And the “Bax gene level (in words)” value (Bax gene; MCF-7 and MCF-7/DOX cells)?
The value was “upregulated”.

And the “Bax gene expression increase” value (Bax gene; MCF-7 cells, 1.0 μM)?
The value was 15.0%.

What about the “Bax gene expression increase” value (Bax gene; MCF-7 cells, 2.0 μM) of the same compound?
Its value is 71.5%.

What about the “Bax gene expression increase” value (Bax gene; MCF-7 cells, 4.0 μM) of the same compound?
The value was 97.5%.

What about the “cleavage of PARP, Caspase 9 and Caspase 3” value ([1]; MCF-7 and MCF-7/DOX cells) of the same compound?
Its value is “induced the cleavage”.

What about the “cleaved PARP” value ([1]; MCF-10A cells, concentrations up to 4 μM) of the same compound?
Its value is “little”.

And the “increase of ROS levels” value (MCF-7 cells)?
Its value is 2–8 fold.

What about the “IFN-γ-induced STAT1 phosphorylation” value (STAT1) of the same compound?
The value was “less of an effect”.

What about the p-Src expression (Src) of the same compound?
Its p-Src expression is “little effect”.

What about the p-Erk1/2 expression (Erk1/2) of the same compound?
Its p-Erk1/2 expression is “little effect”.
